Like-named read-outs stand apart in the source and are kept apart here.
Biological target: T1, α-7 nicotinic ACh receptor ion channel (Rattus norvegicus, UniProt Q05941)
T1 construct: expressed in transfected cells
Test: Ca2+-sensitive fluorescence-based FLIPR assay of α7 nicotinic receptor channel function (agonist activity)
Format: cell-based
Settings: HEK 293 cells, Ca2+ flux
Method: II) A Ca^2+-Sensitive, Fluorescence-Based Assay α-7 for Nicotinic Acetylcholine Receptor Channel Function in Mammalian Cells (“FLIPR”).
Lead compounds are evaluated for agonist activity at α-7, α3β4, α4αβ2, and α1β1δ1ε sub-types of nicotinic ACh receptor ion channels expressed in mammalian HEK 293 cells. Agonist potency and efficacy values are determined from kinetic fluorescence Ca^2+ influx measurements made using a 384 well FLIPR (Fluorescence Image Plate Reader). […] In this assay, channel expressing HEK cell lines seeded in 384 well assay plates are loaded with a membrane permeant fluorescent Ca^2+ indicator dye, whose 510 nm green emission signal increases in response to elevation of intracellular Ca^2+ concentration. The basal fluorescence from the cells is monitored in real time, followed by the acute addition of test compounds.
Reagents: The acetomethoxy (AM) ester of the Ca^2+ indicator dye Fluo-4 was obtained from InVitrogen, (Carlsbad, Calif.). Acetylcholine and all buffer constituents were purchased from Sigma Chemical Company, St. Louis, Mo. G418 and Minimal Essential Medium were purchased from InVitrogen Life Technologies, Carlsbad, Calif. Fetal bovine serum was purchased from (InVitrogen, Carlsbad, Calif.).
HEK-293 cells were grown in Minimal Essential Medium containing 10% (v/v) fetal bovine serum at 37° C. in a 5% CO2 incubator. HEK-293 cells stably expressing the ion channels were grown in the same medium with the addition of 500 μg/ml G418.
HEK-293 cells expressing the ion channels of interest were plated in 384 well, black-walled, clear-bottomed, poly-D-lysine coated plates at a density of ˜20,000 cells/well in 20 μl of Minimal Essential Medium containing 10% (v/v) fetal bovine serum and incubated for 2 days at 29° C. in a 5% CO2 incubator. Prior to assay, cells were loaded with the Fluo-4 AM ester. […] Dye loading was allowed to proceed for 90 minutes at room temperature at which time the dye loading solution was removed and replaced with 40 μl/well of Hanks buffer. Cells loaded with dye were loaded onto a FLIPR384 (Molecular Devices, Sunnyvale, Calif.). […] Emission was filtered using a 540+/−30 nm bandpass filter. For evaluation of the effects of test compounds using the Ca^2+ flux assay, compounds to be tested were provided in assay ready plates. For nicotinic receptor ion channel expressing cells, the assay was initiated by the addition of 20 μl/well of Hanks buffer containing test compounds. For all assays, data were collected at 1 Hz for 10 seconds (baseline), at which time the compound containing stimulus buffers are added, and further measurements collected at 0.33 Hz for 3 min.
The statistical robustness of the nicotinic receptor Ca^2+ flux assays is determined from blanks and totals wells. […] The raw fluorescence units data files generated on the FLIPR plate reader are automatically exported and processed by in-house data analysis tools. The reduced percent activation data for each concentration of test compound are fit using MathIQ fitting engine (ID Business Solutions Limited, Surrey, UK). Data were analyzed by fitting maximum amplitudes of change in fluorescence, for Ca^2+ flux for a given condition of test compound. […] Test compound efficacy values (Ymax values) are expressed relative to a maximal response to acetylcholine in the total wells.

[1] = FLIPR α7-HI (EC50, nM), Table 1, activity class
[2] = FLIPR α7-HI (EC50, nM), Table 3, activity class
[3] = FLIPR α7-HI (EC50, nM), Table 4, activity class
[4] = FLIPR α7-HI (EC50, nM), Table 3

T1 sequence (Q05941 23-502): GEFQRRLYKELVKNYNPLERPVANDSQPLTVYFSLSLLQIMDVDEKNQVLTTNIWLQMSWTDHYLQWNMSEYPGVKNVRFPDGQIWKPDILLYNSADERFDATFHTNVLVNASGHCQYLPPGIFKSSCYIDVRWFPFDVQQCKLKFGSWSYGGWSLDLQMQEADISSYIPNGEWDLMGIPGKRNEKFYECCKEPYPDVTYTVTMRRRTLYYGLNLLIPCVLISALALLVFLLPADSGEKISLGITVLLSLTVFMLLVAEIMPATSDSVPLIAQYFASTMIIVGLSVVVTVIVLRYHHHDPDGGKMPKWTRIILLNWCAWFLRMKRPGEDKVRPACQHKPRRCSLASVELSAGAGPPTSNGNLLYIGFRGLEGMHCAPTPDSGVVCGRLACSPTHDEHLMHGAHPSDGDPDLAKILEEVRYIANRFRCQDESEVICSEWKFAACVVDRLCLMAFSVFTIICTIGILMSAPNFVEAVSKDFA

`COc1ccc2nc(NC3=NCC4(CN5CCC4CC5)N3C)sc2c1` (stereo not drawn) [Example 2] showed an EC50 [1] of 100 to 1000 nM.
`Cc1ccc2nc(NC3=NCC4(CN5CCC4CC5)N3)oc2c1` (stereo not drawn) [Example 8a] was tested, and the EC50 [1] was < 100 nM.
`c1ccc2nc(NC3=NCC4(CN5CCC4CC5)N3)cnc2c1` (stereo not drawn) [Example 36] was tested, and the EC50 [1] was 100 to 1000 nM.
`Clc1cnc(NC2=NCCC3(CN4CCC3CC4)O2)nc1` (stereo not drawn) [Example 78] was tested, and the EC50 [2] was 1000 to 100000 nM.
Work on `CN1CC2(CN3CCC2CC3)O/C1=N\c1ncc(-c2ccccc2)s1` (stereo not drawn) [Example 90, (Z)—N-(3-Methyl-1′-azaspiro[oxazolidine-5,3′-bicyclo[2.2.2]octane]-2-ylidene)-5-phenylthiazol-2-amine] yielded an EC50 [3] of 100 to 1000 nM.
`Clc1ccc(NC2=NCC3(CN4CCC3CC4)N2)nc1` (stereo not drawn) [Example 13] was tested, and the EC50 [1] was 1000 to 100000 nM.
For `Clc1ccc2nc(NC3=NCC4(CN5CCC4CC5)N3)sc2c1` (stereo not drawn) [Example 52], the EC50 (FLIPR α7-HI (EC50, nM)) was 154 nM and the EC50 [1] was 100 to 1000 nM.
For `Cc1nnc(NC2=NCC3(CN4CCC3CC4)N2C)nc1C` (stereo not drawn) [Example 22], the EC50 [1] was > 1e+06 nM.
`c1cnc2sc(NC3=NCC4(CN5CCC4CC5)N3)nc2n1` (stereo not drawn) [Example 32, N-[1,3]Thiazolo[4,5-b]pyrazin-2-yl-1′,5′-dihydrospiro[4-azabicyclo[2.2.2]octane-2,4′-imidazol]-2′-amine] was tested, and the EC50 [1] was 100 to 1000 nM.
For `COc1cc(NC2=NCC3(CN4CCC3CC4)N2C)ncn1` (stereo not drawn) [Example 21], the EC50 [1] was 100 to 1000 nM.
In the case of `Cc1ccc2nc(NC3=NCC4(CN5CCC4CC5)N3)sc2c1` (stereo not drawn) [Example 63, N-(3,5-dihydro-1′-azaspiro[imidazole-4,3′-bicyclo[2.2.2]octane]-2-yl)-6-methylbenzo[d]thiazol-2-amine], the EC50 [1] is reported as 100 to 1000 nM.
Molecule `c1ccn2nc(NC3=NCC4(CN5CCC4CC5)N3)nc2c1` (stereo not drawn) [Example 34] has an EC50 [1] of 100 to 1000 nM.
Work on `Clc1ccc(NC2=NCCC3(CN4CCC3CC4)O2)nn1` (stereo not drawn) [Example 83] yielded an EC50 [2] of 1000 to 100000 nM.
Molecule `CN1C(Nc2ncc(-c3ccccc3)s2)=NCC12CN1CCC2CC1` (stereo not drawn) [Example 5] has an EC50 [1] of 1000 to 100000 nM.
For `c1ccc2nc(NC3=NCCC4(CN5CCC4CC5)O3)ccc2c1` (stereo not drawn) [Example 86], the EC50 [4] was 1810 nM and the EC50 [2] was 1000 to 100000 nM.
`COc1ccc2nc(NC3=NC4(CO3)CN3CCC4CC3)sc2c1` (stereo not drawn) [Example 67, N-(6-Methoxybenzo[d]thiazol-2-yl)-5H-1′-azaspiro[oxazole-4,3′-bicyclo[2.2.2]octan]-2-amine] showed an EC50 (FLIPR α7-HI (EC50, nM), Table 2, activity class column) of 1000 to 100000 nM.
Molecule `COc1ccc2nc(NC3=NCC4(CN5CCC4CC5)N3)sc2n1` (stereo not drawn) [Example 46] has an EC50 [1] of 100 to 1000 nM.
For `COc1ccc2nc(NC3=NCC4(CN5CCC4CC5)N3)sc2c1` (stereo not drawn) [Example 1, N-(6-Methoxy-1,3-benzothiazol-2-yl)-1′,5′-dihydrospiro[4-azabicyclo[2.2.2]octane-2,4′-imidazol]-2′-amine], the EC50 [1] was 100 to 1000 nM.
`c1cn(-c2cc(NC3=NCC4(CN5CCC4CC5)N3)ncn2)cn1` (stereo not drawn) [Example 61] was tested, and the EC50 [1] was 100 to 1000 nM.
`c1ccc2c(NC3=NCC4(CN5CCC4CC5)N3)ncnc2c1` (stereo not drawn) [Example 23] gave an EC50 [1] of 100 to 1000 nM.
In the case of `c1ccc2sc(NC3=NCC4(CN5CCC4CC5)N3)nc2c1` (single isomer, unassigned) [Example 11a], the EC50 [1] is reported as < 100 nM.
`CN1C(Nc2nc3ccccn3n2)=NCC12CN1CCC2CC1` (stereo not drawn) [Example 35] was tested, and the EC50 [1] was 1000 to 100000 nM.
`Clc1ccc2nc(NC3=NCC4(CN5CCC4CC5)N3)sc2n1` (stereo not drawn) [Example 28] was tested, and the EC50 [1] was < 100 nM.
`CN1CC2(CN3CCC2CC3)O/C1=N\c1cnc(Cl)cn1` (stereo not drawn) [Example 91, (Z)-5-Chloro-N-(3-methyl-1′-azaspiro[oxazolidine-5,3′-bicyclo[2.2.2]octane]-2-ylidene)pyrazin-2-amine] was tested, and the EC50 [3] was 1000 to 100000 nM.
`c1ccc(-c2cnc(NC3=NCCC4(CN5CCC4CC5)O3)s2)cc1` (stereo not drawn) [Example 71] was tested, and the EC50 [4] was 87 nM and the EC50 [2] was < 100 nM.
`CN1C(Nc2nccs2)=NCC12CN1CCC2CC1` (stereo not drawn) [Example 10] was tested, and the EC50 [1] was 1000 to 100000 nM.
Molecule `Clc1ccc(NC2=NCCC3(CN4CCC3CC4)O2)nc1` (stereo not drawn) [Example 75] has an EC50 [2] of 1000 to 100000 nM.
Molecule `CN1C(Nc2cc3ccccc3cn2)=NCC12CN1CCC2CC1` (stereo not drawn) [Example 15] has an EC50 (FLIPR α7-HI (EC50, nM)) of 787 nM and an EC50 [1] of 100 to 1000 nM.
With `CN1C(Nc2ncc(Cl)cn2)=NCC12CN1CCC2CC1` (stereo not drawn) [Example 18] the EC50 [1] was 100 to 1000 nM.
For `COc1ncnc2sc(NC3=NCC4(CN5CCC4CC5)N3)nc12` (stereo not drawn) [Example 38], the EC50 [1] was 1000 to 100000 nM.
Molecule `c1ccc2nc(NC3=NCCC4(CN5CCC4CC5)O3)ncc2c1` (stereo not drawn) [Example 84] has an EC50 [2] of 100 to 1000 nM.
In the case of `Clc1ccc2nc(NC3=NCC4(CN5CCC4CC5)N3)sc2n1` (single isomer, unassigned) [Example 28b], the EC50 [1] is reported as 1000 to 100000 nM.
`Cc1nc(C)nc(NC2=NCC3(CN4CCC3CC4)N2)n1` (stereo not drawn) [Example 43] gave an EC50 [1] of 1000 to 100000 nM.
Molecule `Cc1nnc(NC2=NCCC3(CN4CCC3CC4)O2)nc1C` (stereo not drawn) [Example 81] has an EC50 [2] of 1000 to 100000 nM.
In the case of `CN1C(Nc2ccc(Cl)nn2)=NCC12CN1CCC2CC1` (stereo not drawn) [Example 26], the EC50 [1] is reported as 100 to 1000 nM.
`Cc1ccc2c(NC3=NCC4(CN5CCC4CC5)N3)ncnn12` (stereo not drawn) [Example 64] showed an EC50 [1] of 100 to 1000 nM.
For `c1ccc(COc2ccc3nc(NC4=NC5(CN4)CN4CCC5CC4)sc3n2)cc1` (stereo not drawn) [Example 39, N-(5-(benzyloxy)[1,3]thiazolo[5,4-b]pyridin-2-yl)-1′,5′-dihydrospiro[4-azabicyclo[2.2.2]octane-2,4′-imidazol]-2′-amine], the EC50 [1] was > 1e+06 nM.
For `c1ccc2cc(NC3=NCCC4(CN5CCC4CC5)O3)ncc2c1` (single isomer, unassigned) [Example 76b], the EC50 [2] was > 1e+06 nM.
In the case of `c1ccc2nc(NC3=NCCC4(CN5CCC4CC5)O3)cnc2c1` (stereo not drawn) [Example 85], the EC50 [2] is reported as 1000 to 100000 nM.
For `O=c1ccc2nc(NC3=NCC4(CN5CCC4CC5)N3)sc2[nH]1` (stereo not drawn) [Example 42, 2-(1′,5′-Dihydrospiro[4-azabicyclo[2.2.2]octane-2,4′-imidazol]-2′-ylamino)[1,3]thiazolo[5,4-b]pyridin-5 (4H)-one], the EC50 [1] was 100 to 1000 nM.
With `Fc1cccc2sc(NC3=NCC4(CN5CCC4CC5)N3)nc12` (stereo not drawn) [Example 55] the EC50 [1] was < 100 nM.
`c1ccc2cc(NC3=NCCC4(CN5CCC4CC5)O3)ncc2c1` (single isomer, unassigned) [Example 76a] showed an EC50 [2] of 100 to 1000 nM.
In the case of `CN1C(Nc2ncnc3ccccc23)=NCC12CN1CCC2CC1` (stereo not drawn) [Example 24], the EC50 [1] is reported as 1000 to 100000 nM.
Molecule `c1ccc2[nH]c(NC3=NCC4(CN5CCC4CC5)N3)nc2c1` (stereo not drawn) [Example 16] has an EC50 (read-out: FLIPR α7-HI (EC50)) of 1290 nM.
In the case of `Brc1ccc2c(NC3=NCC4(CN5CCC4CC5)N3)ncnn12` (stereo not drawn) [Example 66], the EC50 [1] is reported as 100 to 1000 nM.
With `COc1ncc2nc(NC3=NCCC4(CN5CCC4CC5)O3)sc2n1` (stereo not drawn) [Example 79, N-(5-Methoxythiazolo[5,4-d]pyrimidin-2-yl)-4,5-dihydro-1′-azaspiro[[1,3]oxazine-6,3′-bicyclo[2.2.2]octan]-2-amine] the EC50 [2] was 1000 to 100000 nM.
For `COc1ccc2sc(NC3=NCC4(CN5CCC4CC5)N3)nc2c1` (stereo not drawn) [Example 54], the EC50 [1] was 100 to 1000 nM.
In the case of `Cc1ccc2nc(NC3=NCC4(CN5CCC4CC5)N3)oc2c1` (stereo not drawn) [Example 8b], the EC50 [1] is reported as 1000 to 100000 nM.
With `c1ccc2sc(NC3=NCC4(CN5CCC4CC5)N3)nc2c1` (single isomer, unassigned) [Example 11b] the EC50 [1] was 1000 to 100000 nM.
Work on `Fc1ccc2nc(NC3=NCC4(CN5CCC4CC5)N3)sc2n1` (stereo not drawn) [Example 44, N-(5-Fluoro[1,3]thiazolo[5,4-b]pyridin-2-yl)-1′,5′-dihydrospiro[4-azabicyclo[2.2.2]octane-2,4′-imidazol]-2′-amine] yielded an EC50 [1] of 100 to 1000 nM.
With `c1ccc2sc(NC3=NCCC4(CN5CCC4CC5)O3)nc2c1` (stereo not drawn) [Example 74] the EC50 [2] was 100 to 1000 nM.
`Cc1cnc2nc(NC3=NCC4(CN5CCC4CC5)N3)sc2n1` (stereo not drawn) [Example 41] was tested, and the EC50 [1] was 1000 to 100000 nM.
`COc1ccc2nc(NC3=NCC4(CN5CCC4CC5)N3C)sc2n1` (stereo not drawn) [Example 47] was tested, and the EC50 [1] was 100 to 1000 nM.
`c1ccc2cc(NC3=NCCC4(CN5CCC4CC5)O3)ncc2c1` (stereo not drawn) [Example 76] gave an EC50 [4] of 264 nM and an EC50 [2] of 100 to 1000 nM.
With `c1ccn2cc(NC3=NCC4(CN5CCC4CC5)N3)nc2c1` (stereo not drawn) [Example 37] the EC50 [1] was 1000 to 100000 nM.
